Measured values taken from US6894068B2, “Substituted benzimidazoles as non-nucleoside inhibitors of reverse transcriptase” (The United States of America as represented by the …, priority 1997, dated 2005).
pEC50, pIC50: −log10 of the molar value. Entries after “also recorded” stand apart in the source; their conditions may differ. Like-named read-outs stand apart in the source and are kept apart here.

Assays:
[1] = target: HIV-1 WT RT (Human immunodeficiency virus type 1 group M subtype B, UniProt P03366); assay: biochemical; assay type: biochemical
[2] = system: HIV-1 WT virus (NL4-3); assay: microbe, parasite or virus in culture; assay type: cell-based; settings: Human immunodeficiency virus 1, NL43, CEM-SS, read-out: EC50
Protocol: Evaluation of these compounds for the inhibition of HIV-1 was determined as the fifty percent cell culture inhibitory concentration (CIC50) in CEMSS cell culture with WT virus (NL4-3).
(§1) In this Example, the antiviral and cellular toxicity of NNRTIs was investigated, using the cytopathic cell killing assay described by Yang (Yang et al., “Characteristics of a Group of Non-nucleoside Reverse Transcriptase Inhibitors with Structural Diversity and Potent Anti-Human Immunodeficiency Virus Activity,” Leukemia 9:S75-S85 [1995]). Briefly, in this method cells (e.g., the CEM-SS cell line, available from the NIAID AIDS Research and Reference Program [ARRRP]) were seeded at a density of 5×10^3 cells/well, into the wells of a 96-well microtiter plate. The cells were then infected with HIV virus (either mutant or WT), at a multiplicity of infection (MOI) previously determined to provide complete cell killing by 6 days of culture post-infection (e.g., MOI of 0.01-0.05). Each of the HIV isolates was pre-titered to induce equivalent levels of infection based on cell killing or virus production, prior to their use in these assays. A range of test compound concentrations was added to the wells in triplicate (e.g., serial half-log dilutions) to evaluate inhibition of HIV infection. Controls for each assay included drug controls (drug colorimetric control wells), drug cytotoxicity control wells (cells with drug), virus control wells (cells with virus), and cell viability controls (cells only). Positive control drugs (e.g. AZT and ddC) were also run in parallel.
(§2) After six days of incubation at 37° C., cell viability was determined spectrophotometrically at 450 nm for each well, using the metabolic reduction of XTT to a soluble colored formazan. (See, Gartner and Popovic, “Virus Isolation and Production, in Aldovini and Walker (eds.), Techniques in HIV Research, Stockton Press, NY, pp. […] [1991]; and Nara and Fischinger, “Quantitative Infectivity Assay for HIV-1 and HIV-2, ” Nature 332:469-470 [1988]).
(§3) The in vitro therapeutic index (TI50) was defined as the fold-difference between the EC50 and IC50. The results for the various compounds are included in FIGS. 8 and 19.

[3] = system: HIV-1 NL4-3 (WT); assay: Cytopathic cell killing assay, MT-4 cells, isolate NL4-3 (WT); assay type: cell-based; settings: for pEC50: MT-4 cells
Source text: (§4) The various HIV isolates tested in the Figures are those corresponding to wild-type virus (NL4-3) and the other strains listed by their RT mutations. The three 4×AZT isolates included in the Figures represent AZT drug-resistant variants. For example, the 4×AZT/L100I isolate has five mutations: four mutations confer increased resistance to AZT, and the other mutation is located within the NNRTI binding pocket. TZB and nevir. (nevirapine) are two well-known NNRTIs, included in this experiment for comparison purposes.
as §1, §2, §3

[4] = system: HIV-1 isolate L74V; assay: Cytopathic cell killing assay, MT-4 cells, isolate L74V; assay type: cell-based; settings: MT-4 cells
Source text: as §4, §1, §2, §3

[5] = system: HIV-1 isolate A98G; assay: Cytopathic cell killing assay, MT-4 cells, isolate A98G; assay type: cell-based; settings: Human immunodeficiency virus 1, MT4, read-out: EC50, isolate A98G, Table 8; MT-4 cells
Source text: as §4, §1, §2, §3

[6] = system: HIV-1 isolate L100I; assay: Cytopathic cell killing assay, MT-4 cells, isolate L100I; assay type: cell-based; settings: for EC50: Human immunodeficiency virus 1, MT4, read-out: EC50, isolate L100I, Table 10, values in μM
Source text: as §4, §1, §2, §3

[7] = system: HIV-1 isolate K101E; assay: Cytopathic cell killing assay, MT-4 cells, isolate K101E; assay type: cell-based
Source text: as §4, §1, §2, §3

[8] = system: HIV-1 isolate K103N; assay: Cytopathic cell killing assay, MT-4 cells, isolate K103N; assay type: cell-based; settings: for activity against K103N, result in words: cytopathic cell killing assay
Source text: as §4, §1, §2, §3

[9] = system: HIV-1 isolate V106A; assay: Cytopathic cell killing assay, MT-4 cells, isolate V106A; assay type: cell-based; settings: Human immunodeficiency virus 1, MT4, read-out: EC50, isolate V106A, Table 8; MT-4 cells
Source text: as §4
(§5) In this Example, the antiviral and cellular toxicity of NNRTIs was investigated, using the cytopathic cell killing assay described by Yang (Yang et al., “Characteristics of a Group of Non-nucleoside Reverse Transcriptase Inhibitors with Structural Diversity and Potent Anti-Human Immunodeficiency Virus Activity,” Leukemia 9:S75-S85 [1995]). Briefly, in this method cells (e.g., the CEM-SS cell line, available from the NIAID AIDS Research and Reference Program [ARRRP]) were seeded at a density of 5×10^3 cells/well, into the wells of a 96-well microtiter plate. The cells were then infected with HIV virus (either mutant or WT), at a multiplicity of infection (MOI) previously determined to provide complete cell killing by 6 days of culture post-infection (e.g., MOI of 0.01-0.05). Each of the HIV isolates was pre-titered to induce equivalent levels of infection based on cell killing or virus production, prior to their use in these assays. A range of test compound concentrations was added to the wells in triplicate (e.g., serial half-log dilutions) to evaluate inhibition of HIV infection. […]
(§6) After six days of incubation at 37° C., cell viability was determined spectrophotometrically at 450 nm for each well, using the metabolic reduction of XTT to a soluble colored formazan. (See, Gartner and Popovic, “Virus Isolation and Production, in Aldovini and Walker (eds.), Techniques in HIV Research, Stockton Press, NY, pp. […] [1991]; and Nara and Fischinger, “Quantitative Infectivity Assay for HIV-1 and HIV-2, ” Nature 332:469-470 [1988]). […]

[10] = system: HIV-1 isolate V108I; assay: Cytopathic cell killing assay, MT-4 cells, isolate V108I; assay type: cell-based
Source text: as §4, §1, §2, §3

[11] = system: HIV-1 isolate V179D; assay: Cytopathic cell killing assay, MT-4 cells, isolate V179D; assay type: cell-based; settings: Human immunodeficiency virus 1, MT4, read-out: EC50, isolate V179D, Table 8; MT-4 cells
Source text: as §4, §1, §2, §3

[12] = system: HIV-1 isolate Y181C; assay: Cytopathic cell killing assay, MT-4 cells, isolate Y181C; assay type: cell-based; settings: for EC50: Human immunodeficiency virus 1, MT4, read-out: EC50, isolate Y181C, Table 10, values in μM
Source text: as §4, §1, §2, §3

[13] = system: HIV-1 isolate Y188C; assay: Cytopathic cell killing assay, MT-4 cells, isolate Y188C; assay type: cell-based; settings: MT-4 cells
Source text: as §4, §1, §2, §3

[14] = system: WT and HIV-1 variants containing amino acid substitutions in RT; assay type: cell-based; settings: cytopathic cell killing assay, NNRTI-resistant HIV isolates
Source text: In these Tables, antiviral data are reported as the quantity of drug in μM required to reduce cell killing or virus production by 50% (EC50). The various HIV isolates tested in the Figures are those corresponding to wild-type virus (NL4-3) and the other strains listed by their RT mutations. The three 4×AZT isolates included in the Figures represent AZT drug-resistant variants.
(§7) Briefly, in this method cells (e.g., the CEM-SS cell line, available from the NIAID AIDS Research and Reference Program [ARRRP]) were seeded at a density of 5×10^3 cells/well, into the wells of a 96-well microtiter plate. The cells were then infected with HIV virus (either mutant or WT), at a multiplicity of infection (MOI) previously determined to provide complete cell killing by 6 days of culture post-infection (e.g., MOI of 0.01-0.05). Each of the HIV isolates was pre-titered to induce equivalent levels of infection based on cell killing or virus production, prior to their use in these assays. A range of test compound concentrations was added to the wells in triplicate (e.g., serial half-log dilutions) to evaluate inhibition of HIV infection. Controls for each assay included drug controls (drug colorimetric control wells), drug cytotoxicity control wells (cells with drug), virus control wells (cells with virus), and cell viability controls (cells only). Positive control drugs (e.g. AZT and ddC) were also run in parallel.
as §2
Antiviral and toxicity data were reported as the quantity of drug required to inhibit 50% of virus-induced cell killing or virus production (EC50), and the quantity of drug required to […] (IC50). The in vitro therapeutic index (TI50) was defined as the fold-difference between the EC50 and IC50.

[15] = system: HIV-1 isolate 4xAZT (AZT drug-resistant variant); assay: Cytopathic cell killing assay, MT-4 cells, isolate 4xAZT; assay type: cell-based; settings: Human immunodeficiency virus 1, MT4, read-out: EC50, isolate 4XAZT
Source text: as §4, §5, §6

[16] = system: HIV-1 isolate M184I; assay: Cytopathic cell killing assay, isolate M184I; assay type: cell-based; settings: Human immunodeficiency virus 1, read-out: EC50, isolate M184I
Source text: as §4, §5, §6

[17] = system: HIV-1 isolate Y188H; assay: Cytopathic cell killing assay, isolate Y188H; assay type: cell-based; settings: Human immunodeficiency virus 1, read-out: EC50, isolate Y188H
Source text: as §4, §1, §2, §3

[18] = system: HIV-1 isolate 4xAZT/L100I; assay: Cytopathic cell killing assay, MT-4 cells, isolate 4xAZT/L100I; assay type: cell-based; settings: read-out: EC50, isolate 4XAZT/L1001; Table 9; MT-4 cells
Protocol: The various HIV isolates tested in the Figures are those corresponding to wild-type virus (NL4-3) and the other strains listed by their RT mutations. The three 4×AZT isolates included in the Figures represent AZT drug-resistant variants.
as §7, §2
The in vitro therapeutic index (TI50) was defined as the fold-difference between the EC50 and IC50.

[19] = Table 7, drug concentration required to reduce cell killing or virus production by 50%, WT

Structure (SMILES): CC(=O)Nc1cccc2c1nc(-c1c(F)cccc1F)n2Cc1c(F)cccc1F [Compound 3600, 1-(2,6-difluorobenzyl)-2-(2,6-difluorophenyl)-4-acetamidobenzimidazole]
- pIC50 [1]: 4.26
- inhibition at 1 µM ([1]; Table 7, 1 μM drug, WT HIV-1 RT, read-out: % inhibn (1 μM)): 24%
- pEC50 [2, 19]: 5.83
- pEC50 ([3]; Human immunodeficiency virus 1, NL43, MT4, Table 8, read-out: EC50, isolate NL4-3): 5.80
- EC50 ([3]; Human immunodeficiency virus 1, NL43, MT4, Table 10, values in μM, read-out: EC50, isolate NL4-3 (WT)): 1.97 µM
- pEC50 ([4]; Human immunodeficiency virus 1, MT4, read-out: EC50, isolate L74V, Table 8): 5.92
- pEC50 [5]: 5.37
- EC50 [6]: 3.25 µM
- pEC50 ([6]; Human immunodeficiency virus 1, MT4, read-out: EC50, isolate L1001, Table 8, MT-4 cells): 5.68
- pEC50 ([7]; Human immunodeficiency virus 1, MT4, read-out: EC50, isolate K101E, Table 8, MT-4 cells): < 4.70
- pEC50 ([8]; Human immunodeficiency virus 1, MT4, read-out: EC50, isolate K103N, Table 8, MT-4 cells): < 4.70
- EC50 ([8]; Human immunodeficiency virus 1, MT4, read-out: EC50, isolate K103N, Table 10, values in μM): > 100 µM
- pEC50 [9]: < 4.70
- pEC50 ([10]; Human immunodeficiency virus 1, MT4, read-out: EC50, isolate V1081, Table 8, MT-4 cells): 5.28
- pEC50 [11]: 5.77
- pEC50 ([12]; Human immunodeficiency virus 1, MT4, read-out: EC50, isolate Y181C, Table 8, MT-4 cells): < 5.00
- EC50 [12]: > 100 µM
- pEC50 ([13]; Human immunodeficiency virus 1, MT4, read-out: EC50, isolate Y188C, Table 8): < 5.00
- cross-resistance profile, result in words [14]: inhibit HIV-1 better than TZB
- melting point: 194 to 195 °C

Structure (SMILES): COc1cccc2c1nc(-c1c(F)cccc1F)n2Cc1c(F)cccc1F [Compound 5006, 1-(2,6-difluorobenzyl)-2-(2,6-difluorophenyl)-4-methoxylbenzimidazole]
- pEC50 [2, 19]: 8.34
- pEC50 ([2]; Table 11, CEMSS/NL4-3, NRVC = no reduction in viral CPE): 7.22
- pEC50 ([2]; text b130, cytopathic cell killing assay, WT): 8.34
- pEC50 [5]: 6.52
- EC50 [6]: 0.16 µM
- EC50 ([7]; Human immunodeficiency virus 1, MT4, read-out: EC50, isolate K101E, Table 10, values in μM): 2.82 µM
- activity against K103N, result in words [8]: failed to show any activity
- EC50 ([10]; Human immunodeficiency virus 1, MT4, read-out: EC50, isolate V108I, Table 10, values in μM): 2.82 µM
- EC50 [12]: 0.26 µM
- activity against Y181C, result in words ([12]; cytopathic cell killing assay): maintaining activity
- pEC50 [15]: 6.22
- pEC50 [16]: 6.80
- pEC50 [17]: 6.59
- cross-resistance profile, result in words [14]: inhibit HIV-1 better than TZB; also recorded: equal or better against the various variants than nevirapine
- cross-resistance profile, result in words ([14]; listed as 44): retained the best activity against the different RT variants; also recorded: retains activity comparable with nevirapine
- melting point: 154 to 155 °C

Structure (SMILES): Fc1cccc(F)c1C1SCc2nc3ccccc3n21 (centres unmarked) [TZB, 1-(2,6-difluorophenyl)-1H,3H-thiazolo[3,4-a]benzimidazole, reference compound]
- pEC50 ([3]; Human immunodeficiency virus 1, NL43, MT4, read-out: EC50, isolate NL4-3, Table 9): 6.00
- pEC50 ([4]; Human immunodeficiency virus 1, MT4, read-out: EC50, isolate L74V, Table 9): 6.10
- activity against K103N, result in words [8]: ineffective
- pEC50 ([13]; Human immunodeficiency virus 1, MT4, read-out: EC50, isolate Y188C, Table 9): < 4.70
- pEC50 [18]: 5.96
